Data as given in patent US20260327216A1, “SUBSTITUTED OXAZOLONE COMPOUND FOR DECREASING LEVELS OF IKZF I-4 PROTEINS” (BRISTOL-MYERS SQUIBB COMPANY, priority 2023, published 2026).

How the values were obtained:
IKZF3 Aiolos = IKZF3 Aiolos (Homo sapiens, UniProt Q96SW2+Q9UKT9); test: Jurkat Cellular Degradation Assay, IKZF3; type: cell-based; set-up: endogenous in cells; settings: Jurkat cells, 72 h; for Dmax: human, 100% = complete degradation, 0% = no detectable degradation, read-out: IKZF3 Aiolos max % deg. observed
IKZF3 Aiolos, sequence (Q9UKT9 whole entry): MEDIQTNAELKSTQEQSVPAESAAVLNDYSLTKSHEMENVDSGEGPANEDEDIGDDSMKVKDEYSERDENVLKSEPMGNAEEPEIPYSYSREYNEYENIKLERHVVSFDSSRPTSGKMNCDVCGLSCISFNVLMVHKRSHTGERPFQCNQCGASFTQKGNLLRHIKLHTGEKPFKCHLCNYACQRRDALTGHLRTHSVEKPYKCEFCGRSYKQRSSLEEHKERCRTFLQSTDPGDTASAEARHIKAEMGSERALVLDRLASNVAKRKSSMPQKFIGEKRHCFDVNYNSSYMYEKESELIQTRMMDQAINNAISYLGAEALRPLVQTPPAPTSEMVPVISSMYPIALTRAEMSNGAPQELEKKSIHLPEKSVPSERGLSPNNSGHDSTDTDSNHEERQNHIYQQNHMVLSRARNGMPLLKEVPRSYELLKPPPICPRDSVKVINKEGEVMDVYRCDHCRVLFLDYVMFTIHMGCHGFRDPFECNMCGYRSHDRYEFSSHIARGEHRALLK
IKZF3 Aiolos, sequence (Q96SW2 whole entry): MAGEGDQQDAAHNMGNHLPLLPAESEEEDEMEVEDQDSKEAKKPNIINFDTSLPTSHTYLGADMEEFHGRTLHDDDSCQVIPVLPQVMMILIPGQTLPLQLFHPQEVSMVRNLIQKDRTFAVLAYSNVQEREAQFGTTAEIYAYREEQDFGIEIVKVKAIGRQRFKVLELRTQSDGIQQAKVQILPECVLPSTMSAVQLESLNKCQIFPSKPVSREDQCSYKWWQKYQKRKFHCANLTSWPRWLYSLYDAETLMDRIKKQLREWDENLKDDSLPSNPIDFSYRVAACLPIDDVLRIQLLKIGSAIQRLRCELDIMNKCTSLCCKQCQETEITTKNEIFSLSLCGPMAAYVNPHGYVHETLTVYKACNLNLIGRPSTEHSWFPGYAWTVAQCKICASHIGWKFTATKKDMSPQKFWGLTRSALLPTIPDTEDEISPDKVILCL
IKZF3 Aiolos, sequence (Q16531 whole entry partner): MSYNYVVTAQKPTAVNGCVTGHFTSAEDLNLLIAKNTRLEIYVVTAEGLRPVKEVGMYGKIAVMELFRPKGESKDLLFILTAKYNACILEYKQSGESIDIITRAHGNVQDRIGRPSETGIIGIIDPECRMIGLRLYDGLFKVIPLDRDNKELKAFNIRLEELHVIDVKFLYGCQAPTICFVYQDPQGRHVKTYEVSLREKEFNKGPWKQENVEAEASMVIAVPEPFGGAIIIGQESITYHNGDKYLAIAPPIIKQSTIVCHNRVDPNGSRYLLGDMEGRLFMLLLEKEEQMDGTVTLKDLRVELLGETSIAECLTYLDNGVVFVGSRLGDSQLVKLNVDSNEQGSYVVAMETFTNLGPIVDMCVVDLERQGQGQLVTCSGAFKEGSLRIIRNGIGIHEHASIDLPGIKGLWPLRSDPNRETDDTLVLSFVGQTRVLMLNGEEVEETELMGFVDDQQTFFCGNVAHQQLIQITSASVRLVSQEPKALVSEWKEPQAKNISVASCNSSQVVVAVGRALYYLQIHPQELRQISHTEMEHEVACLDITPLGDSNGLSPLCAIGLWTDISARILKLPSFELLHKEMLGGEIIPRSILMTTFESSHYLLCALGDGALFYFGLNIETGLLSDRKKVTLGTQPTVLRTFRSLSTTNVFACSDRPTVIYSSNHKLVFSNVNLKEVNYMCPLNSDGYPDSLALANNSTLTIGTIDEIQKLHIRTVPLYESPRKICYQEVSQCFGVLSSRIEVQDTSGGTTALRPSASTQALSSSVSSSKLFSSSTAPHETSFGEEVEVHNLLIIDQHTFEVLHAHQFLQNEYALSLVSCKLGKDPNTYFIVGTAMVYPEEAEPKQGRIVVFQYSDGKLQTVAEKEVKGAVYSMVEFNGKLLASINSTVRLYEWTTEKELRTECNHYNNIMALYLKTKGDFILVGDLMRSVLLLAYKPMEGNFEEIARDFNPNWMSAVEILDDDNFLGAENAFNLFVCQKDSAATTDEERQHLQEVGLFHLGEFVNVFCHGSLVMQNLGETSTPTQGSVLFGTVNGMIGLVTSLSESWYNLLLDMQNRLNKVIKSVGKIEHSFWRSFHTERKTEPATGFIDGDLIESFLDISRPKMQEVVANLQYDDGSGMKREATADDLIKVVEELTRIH
Description: Jurkat cells were plated at 80,000 cells/well in 40 μL RPMI+10% FBS in a 384-well cell culture plate prior to using acoustic dispensing technology for adding a compound of interest. Cell cultures were incubated for 72 h at 37° C. and 5% CO2. In order to facilitate analysis, cell cultures were spun down at 200 rpm for 5 min and the supernatant was discarded. After shaking the plate to dislodge the cell pellet, cells were resuspended in 50 μL of Fixation Buffer (eBioscience FoxP3 buffer set 00-5523-00) for 60 min at room temperature. After centrifuging and discarding the supernatant, cells were permeabilized with 50 μL of Permeabilization buffer (eBioscience FoxP3 buffer set 00-5523-00) for 10 min at room temperature. Following permeabilization, cells were spun down and the supernatant was replaced with 20 μL fluorescently labelled antibodies against Helios, Ikaros and Aiolos or corresponding Isotype controls in 1× Permeabilization buffer (Ikaros-Alexa488 [Biolegend, Cat #368408, 1:50], Helios-PE [CST, Cat #29360, 1:50], Aiolos-Alexa647 [Biolegend, Cat #371106 Biolegend, 1:25]) and staining reactions were incubated for 1 h at room temperature while protected from light. Subsequently, 30 μL of 1× Permeabilization buffer was added prior to centrifuging the cells and discarding the supernatant. Stained cells were resuspended in 25 μL of flow cytometry staining buffer [PBS+0.2% bovine serum albumin (BSA)] and analyzed using an Intellicyt Ique Plus flow cytometer.
(§1) Table A-1 lists the maximum observed degradation of the IKZF1 protein, IKZF2 protein, and IKZF3 protein as measured in the Jurkat Cellular Degradation assay. The results in Table A-1 were rounded to two digits. In the Jurkat Cellular Degradation assay, a value of 100% indicated no detectable protein remaining or complete degradation of the protein; and a value of 0% indicated no detectable degradation of the protein by the test compound.

IKZF2 Helios = IKZF2 Helios (Homo sapiens, UniProt Q96SW2+Q9UKS7); test: Human Regulatory T Cell Reprogramming Assay, IKZF2; type: cell-based; set-up: endogenous in cells; host or cells: FACS-sorted human CD4+CD127lowCD25+ Treg cells from healthy leukopaks; settings: 12-13 days; for IKZF2 Helios max % deg. observed / Dmax: human CD4+CD127lowCD25+ Treg cells, stimulated, 100% = complete degradation; for Dmax: Regulatory T cell, human, read-out: IKZF2 Helios max % deg. observed
IKZF2 Helios, sequence (Q9UKS7 whole entry): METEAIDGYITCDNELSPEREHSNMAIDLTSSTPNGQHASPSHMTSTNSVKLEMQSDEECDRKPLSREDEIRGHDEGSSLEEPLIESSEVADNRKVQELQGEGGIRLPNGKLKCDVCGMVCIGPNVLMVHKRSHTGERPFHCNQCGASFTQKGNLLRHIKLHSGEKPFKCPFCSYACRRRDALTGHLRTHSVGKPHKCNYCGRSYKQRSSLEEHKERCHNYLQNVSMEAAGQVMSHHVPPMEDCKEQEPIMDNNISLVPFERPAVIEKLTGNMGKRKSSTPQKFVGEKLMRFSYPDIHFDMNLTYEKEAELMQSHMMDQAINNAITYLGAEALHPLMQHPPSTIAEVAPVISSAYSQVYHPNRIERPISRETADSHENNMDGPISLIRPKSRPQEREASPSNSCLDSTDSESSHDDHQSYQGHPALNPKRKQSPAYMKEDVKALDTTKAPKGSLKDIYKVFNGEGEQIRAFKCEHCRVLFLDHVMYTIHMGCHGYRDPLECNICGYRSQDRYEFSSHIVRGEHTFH
IKZF2 Helios, sequence (Q96SW2 whole entry): as the sequence (Q96SW2 whole entry) above
IKZF2 Helios, sequence (Q16531 whole entry partner): as the sequence (Q16531 whole entry partner) above
Description: Human CD4^+ T cells were isolated from fresh healthy leukopaks (Stemcell Technologies) using the RosetteSep Human CD4^+ T cell enrichment cocktail (Stemcell Technologies) and Ficoll density gradient centrifugation. Leukopaks were diluted with an equal volume of phosphate-buffered saline (PBS [Gibco]) supplemented with 2% fetal bovine serum (FBS, VWR Lifescience) and incubated with RosetteSep Human CD4^+ T cell enrichment cocktail for 20 minutes before layering on Ficoll-Paque Plus solution (GE Health Care). The cell-rich interface layer was harvested and washed twice with PBS supplemented with 2% FBS. Regulatory T cells were then isolated manually using the EasySep Human CD4^+CD127^lowCD25^+ Regulatory T cell isolation kit (Stemcell Technologies) according to the manufacturer's instructions. Cells were rested overnight in Roswell Park Memorial Institute (RPMI) 1640 media (Gibco) supplemented with 10% FBS, Pen/Strep (Gibco), MEM-NEAA (Gibco), and sodium pyruvate (Gibco) in a humidified incubator (37° C., 5% CO2). Cells were then stained for CD4 (clone: RPA-T4, Biolegend), CD25 (clone: 2A3, BD Biosciences), and CD127 (clone: hIL-7R-M21, BD Biosciences). CD4^+CD127^lowCD25^+ cells were sorted on a BD FACS Aria Fusion sorter to a purity of 95% or greater. Sorted cells were immediately used or cryopreserved for downstream assays.
Fresh or cryopreserved FACS-sorted CD4^+CD127^lowCD25^+ Treg cells were cultured at 25,000-50,000 cells/well of 96-well round bottom plates in RPMI 1640 media (Gibco) supplemented with 10% FBS, Pen/Strep (Gibco), MEM-NEAA (Gibco), and sodium pyruvate (Gibco). Cells were stimulated with Treg Xpander beads (Thermo Fisher) at cells-to-beads ratio of 1:4 in the presence of 500 U/mL recombinant human IL-2 (Proleukin). Compounds were added at titrated doses and cells were incubated at 37°C., 5% CO2 for 12-13 days. Recombinant human IL-2 and compound were replenished every 2-3 days during the entire culture duration. On day 12 or 13, cells were restimulated with phorbol 12-myristate 13-acetate (PMA) and ionomycin in the presence of the protein transport inhibitors brefeldin A and monensin (eBioscience Cell Stimulation Cocktail plus protein transport inhibitors, 500×, Catalog number 00-4975-93) before proceeding with flow cytometry staining and analysis.
For flow cytometry staining, cells were washed twice with flow cytometry staining buffer (Thermo Fisher) and incubated in Human Tru-stain Fc block (Biolegend) for 10 minutes before adding eFluor780 viability dye (Thermo Fisher) and surface marker antibody cocktail for 30 minutes at 4° C. Cells were then fixed and permeabilized by incubation with FoxP3 transcription factor staining buffer (Thermo Fisher) for 30 minutes at 4° C. as per the kit manufacturer's instructions. Cells were washed twice with the Perm/Wash buffer supplied in the kit as per the manufacturer's instructions and incubated overnight at 4° C. with an intracellular antibody cocktail comprised of antibodies specific for the transcription factors shown in Table C. Cells were washed twice with Perm/Wash buffer and resuspended in flow cytometry staining buffer (Thermo Fisher) prior to acquisition. Sample acquisition and analysis was performed using a BD LSRFortessa (BD Biosciences) flow cytometer. Single stain controls for each fluorochrome were prepared using UltraComp eBead Compensation Beads (Thermo Fisher). Data were analyzed using FlowJo version 10 and GraphPad Prism Software.
as §1, with “C-1” for “A-1”, “the” for “the IKZF1 protein,”, “protein” for “protein,”, “IKZF4” for “IKZF3”, “Human Regulatory T Cell Reprogramming” for “Jurkat Cellular Degradation”

Structure (SMILES) | Dmax (IKZF3 Aiolos) [%] | IKZF2 Helios max % deg. observed (IKZF2 Helios) | Dmax (IKZF2 Helios) [%] | DC50 (IKZF3 Aiolos; concentration reducing protein level by 50% vs DMSO) [µM] | DC50 (IKZF2 Helios; human Treg cells, concentration reducing protein level by 50% vs DMSO) [µM]
O=C1CCC(n2cc(-c3ccccc3)oc2=O)C(=O)N1 (stereo not shown) [Comparative Compound A, 3-(2-oxo-5-phenyloxazol-3(2H)-yl)piperidine-2,6-dione] | 46 | 1% |  |  | 
O=C1CCC(n2cc(-c3ccc(Br)cc3F)oc2=O)C(=O)N1 (stereo not shown) [Comparative Compound B, 3-(5-(4-bromo-2-fluorophenyl)-2-oxooxazol-3(2H)-yl)piperidine-2,6-dione] | 15 | 6% | ≤ 6 |  | 
Cc1cc(-c2ccc(-c3cn(C4CCC(=O)NC4=O)c(=O)o3)c(F)c2)nc(N)c1OC(F)F (stereo not shown) [Example 1, 3-(5-(4-(6-Amino-5-(difluoromethoxy)-4-methylpyridin-2-yl)-2-fluorophenyl)-2-oxooxazol-3(2H)-yl)piperidine-2,6-dione] | 52 | 86-92% | 86 to 92 | 9.01 | 0.0011 to 0.0014
